{"source": "patent US20210198629A1", "about": "“COMPOSITIONS AND METHODS FOR INCREASING BEIGING OF WHITE ADIPOSE TISSUE” (University of Georgia Research Foundation, Inc., priority 2018, published 2021)", "key": {"[1]": {"test_system": "iWAT and eWAT of diet-induced obesity (DIO) mice", "assay": "Oral BI-7273 in DIO mice: WAT beiging, H/E, UCP1 IHC, RT-qPCR, mitochondrial copy number", "format": "in vivo, mouse", "conditions": "for mRNA levels of Ucp1, increase: vs control mice", "method": "All animal studies were approved by the University of Georgia Institutional Animal Care and Use Committee (IACUC) and performed strictly following the guidelines Animals were housed in a temperature-controlled (22° C.) environment with 12:12-hrs light:dark cycle and allowed food and water […]. All mouse strains were purchased from the Jackson Laboratory: C57BL/6J: #000664; Ucp1-Cre: #024670; ROSA-INTACT: #021039. To generate diet-induced obesity and type 2 diabetes models, 8-week old C57BL/6J mice (both males and females) were fed with a high-fat diet (60% fat, Research Diet, catelog #D12492) for […]. To perform gavage feeding, animals were immobilized by hands and a gavage solution (0.5% Natrosol or 0.5% Natrosol containing BI-7273, […]) was administered through a 1 mL syringe equipped with a disposable gavage needle.\nFor histology, iWAT was excised from mice and fixed with 10% formalin, dehydrated and embedded in paraffin. The sliced tissue (5 μm) was stained with hematoxylin and eosin Y (Sigma Aldrich). Cell size was quantified by NIH ImageJ (ver 1.47t). Alternative sections were used for immunohistochemistry detection of UCP1 and H/E staining. Paraffin sections were antigen unmasked with Tris-EDTA buffer (10 mM Tris Base, 1 mM EDTA, 0.05% Tween 20, pH 9.0) in 93° C. for 15 min. Sections were blocked with blocking solution (10% normal goat serum and 1% BSA in PBS) for 1 hr at room temperature and incubated with the primary antibody (anti-UCP1, 1:200 diluted in blocking solution) overnight at 4° C. The endogenous peroxidase was quenched with 3% hydrogen peroxide. Sections were incubated with the secondary antibody for 1 hr at room temperature. Slides were developed with DAB (VectorLab) for 5 min followed with hemotoxylin conterstaining for 1 min. Color images were captured on a Leica DM4000B microscope equipped with a DFC450c camera.\nTotal RNA was isolated from tissue or cell culture using TRIzol. Total RNA (500 ng) from tissues or cell culture was used in 25 μL reverse transcription reactions (Maxima; Life technologies) and diluted into 250 μL. Diluted cDNA (2 μL) was used in quantitative PCR reactions (SsoAdvanced™ Universal SYBR Green mix; Bio-Rad) on a BioRad CFX384™ Real-Time PCR Detection System. Cq-values were determined and expression values were calculated by BioRad CFX Manager™ Software. Relative mRNA expression values were normalized to inner reference genes Rps18 and Tbp of each biological sample. For mitochondrial copy number qPCR, mitochondrial Cox2 gene was amplified and normalized to genomic β-globin gene.\n[…]. The efficacy of BI-7273 in inducing beige adipocyte formation in vivo was tested within diet-induced obesity (DIO) and type 2 diabetes mouse models. To generate DIO models, adult C57BL/6 mice (8-week age, both males and females) were fed with a high-fat diet (HFD; 60% calories from fat) for 12 weeks. To administer BI-7273, BI-7273 mixed in 0.5% Natrosol (100 mg/kg/day, 200 uL) was gavaged for 14 days. For the control mice, 0.5% Natrosol in the same volume was gavaged during the same period. The high-fat diet was changed to the normal chow during gavaging to maximize the uptake of BI-7273. DIO models of control and BI-7273 treatment groups were euthanized after 14-day of gavaging and adipose tissues (iWAT and eWAT) were subjected to H/E staining and UCP1 immunohistochemistry (IHC) to identify beige adipocytes. […]."}, "[2]": {"conditions": "in vivo; cited from earlier work"}, "DIO mice": {"test_system": "DIO mice", "assay": "Body weight, adiposity (BIS), food intake, treadmill exhaustion in DIO mice after oral BI-7273", "format": "in vivo, mouse", "method": "Treadmill exhaustion test was performed with an Exer 3/6 treadmill and controller (Columbus Instruments). The treadmill was set up with a uphill inclination of 10%.\nMice were anesthetized with 1% isoflurane and lied flat dorsal side up with limbs perpendicular and tail straight. Four electrodes of ImpediVET were fastened with 28G needles and placed on four points on the midline of the body. Fat-free mass (FFM) and fat mass (FM) were calculated from total body water (TBW) determined by input body weight and complex impedance plotting of 256 frequencies between 4 kHz and 1000 kHz.\nGiven the above augmentation of whole-body energy expenditure in BI-7273 treated DIO models, whether BI-7273 is sufficient to induce body weight loss and reduce adiposity (anti-obesity effects) was also investigated. DIO models were gavaged with BI-7273 or control 0.5% Natrosol for 14 days as described above and later fed with HFD for one additional month. […] On average, BI-7273 treated DIO mice lost ˜15.5% of body weight at the end of the study (1.5 months after the start of gavage; FIG. 5F). This weight loss rate is higher than the criterium established by the Endocrine Society for effective treatment of obesity (>5% weight loss over three months) (Apovian, C. M., et al., J Clin Endocrinol Metab, 100, 342-362 (2015)).\nUsing bioimpedance spectroscopy (BIS), the adiposity (fat mass percent) of mice before and after gavage was measured. […] On average, the reduced fat mass (55 grams×21%=11.6 grams) in BI-7273 treated mice was more than the body weight loss at the end of the study (˜9 grams), which indicates a concomitant increase of lean mass in BI-7273 treated DIO mice."}, "[3]": {"conditions": "eWAT, 100 mg/kg/day gavage for 14 days"}, "[4]": {"conditions": "iWAT, 100 mg/kg/day gavage for 14 days"}}, "data": [{"smiles": "COc1cc(-c2cn(C)c(=O)c3cnccc23)cc(OC)c1CN(C)C", "note": "[BI-7273, 4-[4-[(dimethylamino)methyl]-3,5-dimethoxyphenyl]-2-methyl-2,7-naphthyridin-1-one]", "values": [{"measurement": "mRNA levels of Pgc1β, increase", "setting": "[1]; [3]", "value": 4.9, "unit": "fold"}, {"measurement": "mRNA levels of Ucp1, increase", "setting": "[1]; [3]", "value": 6, "unit": "fold"}, {"measurement": "Pgc1β expression", "setting": "[1]; iBAT, limb muscles (TA, EDL), and liver", "value": "increased"}, {"measurement": "other beige adipocyte markers (Cedia, Dio2, Elovl3, Cox8b)", "setting": "[1]; iWAT and eWAT, 100 mg/kg/day gavage for 14 days", "value": "increased"}, {"measurement": "overall size of adipocytes", "setting": "[1]; iWAT and eWAT, 100 mg/kg/day gavage for 14 days, H/E", "value": "overtly reduced"}, {"measurement": "multiocular UCP1+pos beige adipocytes", "setting": "[1]; iWAT and eWAT, 100 mg/kg/day gavage for 14 days, UCP1 IHC", "value": "induced the formation"}, {"measurement": "Pgc1α mRNA levels", "setting": "[1]; iWAT or eWAT, 100 mg/kg/day gavage for 14 days", "value": "not affected"}, {"measurement": "mitochondrial genome copy number, higher than control DIO mice", "setting": "[1]; iWAT, eWAT, iBAT, limb muscles, liver", "value": "2.5-8.5 folds"}, {"measurement": "mRNA levels of Pgc1β, increase", "setting": "[1]; [4]", "value": 3.8, "unit": "fold"}, {"measurement": "mRNA levels of Ucp1, increase", "setting": "[1]; [4]", "value": 22, "unit": "fold"}, {"measurement": "bioavailability", "setting": "[2]", "value": "good and high"}, {"measurement": "reduced fat mass", "setting": "DIO mice; 55 grams×21%, end of study", "value": 11.6, "unit": "grams"}, {"measurement": "adiposity (fat mass percent)", "setting": "DIO mice; BIS, end of study, 1.5 months after the start of gavage, ~47% before gavage", "value": "~26", "unit": "%"}, {"measurement": "treadmill performance (time until exhaustion)", "setting": "DIO mice; after treatment", "value": "improved"}, {"measurement": "food intake", "setting": "DIO mice; before and after gavage, vs control group", "value": "comparable"}, {"measurement": "body weight lost", "setting": "DIO mice; end of study, 1.5 months after the start of gavage, HFD refeeding", "value": "~15.5", "unit": "%"}, {"measurement": "body weight loss", "setting": "DIO mice; end of the study", "value": "~9", "unit": "grams"}, {"measurement": "lean mass", "setting": "DIO mice; inferred from fat mass vs body weight loss", "value": "increase"}]}]}
